Assay results reported in patent US12403141B2, “Deuterated MK2 pathway inhibitors and methods of using the same” (ACLARIS THERAPEUTICS, INC., priority 2019, dated 2025).
Entries after “also recorded” stand apart in the source; their conditions may differ. Each block holds one molecule with its values, some of them ahead of it.

Legend:
minipig hepatocytes = test: In vitro metabolite profile in minipig hepatocytes; type: in vitro ADME; parameters: key to UV % at 280-290 nm or observed (+ or --), metabolite M532b (Hydroxylation) / UV % at 280-290 nm or observed (+ or --), metabolite M532c (Hydroxylation) / UV % at 280-290 nm or observed (+ or --), metabolite M563 (O-dealkylation + Glucuronidation) / UV % at 280-290 nm or observed (+ or --), metabolite M530b (Hydroxylation) / UV % at 280-290 nm or observed (+ or --), metabolite M530c (Hydroxylation): +: only detected by MS; --: not detected or trace; conditions: 10 μM; for UV % at 280-290 nm, Parent-T0 min: T0 min (normalized as 100%)
Description: (§1) Briefly, each test compound (final concentration of 10 μM containing 0.1% DMSO) was incubated with rat, dog, minipig, monkey, or human hepatocytes (final viable cell density of 1×10^6 cells/mL) at 37° C. with 5% CO2 in HI hepatocyte maintenance media (BIOIVT; Catalog #Z99009) for 120 minutes. Reactions were initiated by combining 200 μL of pre-warmed 2× dosing solution containing 20 μM test compound and 0.2% DMSO in HI maintenance media with 200 μL of pre-warmed hepatocyte solution containing 2×10^6 cells/mL in HI maintenance media. Samples were taken at 0 minutes (T0) and 120 minutes (T120) by quenching the reaction with 1200 μL acetonitrile. After quenching, the samples were sonicated for 2 minutes and then centrifuged at 1400 rpm for 5 minutes. A 1400-μL aliquot of the supernatant was evaporated under a stream of N2 until dry. The dried extracts were then reconstituted with 200 μL acetonitrile: H2O (1:3 v/v), vortexed for 2 minutes and centrifuged at 14000 rpm for 5 minutes. A 2-μL aliquot of the supernatant was injected onto a Xevo UPLC-UV-G2-S Q-Tof system (Waters®) with positive-ion electrospray ionization for analysis. Chromatographic separation was achieved on an Acquity UPLC®BEH C18 column (2.1×50 mm, 1.7 μm; Waters®) by gradient elution using varying proportions of mobile phase A (H2O with 0.1% formic acid) and mobile phase B (acetonitrile with 0.1% formic acid) at a constant flow rate of 400 μL/minute over a total run time of 10 minutes. LC-UV-MS extract ion chromatograms (EIC) of the T120 samples were compared to the T0 samples to identify the major putative metabolites which were named as Mm/z.

human hepatocytes = test: In vitro metabolite profile in human hepatocytes; type: in vitro ADME; parameters: key to UV % at 280-290 nm or observed (+ or --), metabolite M387 (O-dealkylation) / UV % at 280-290 nm or observed (+ or --), metabolite M532b (Hydroxylation) / UV % at 280-290 nm or observed (+ or --), metabolite M532e (Hydroxylation) / UV % at 280-290 nm or observed (+ or --), metabolite M563 (O-dealkylation + Glucuronidation) / UV % at 280-290 nm or observed (+ or --), metabolite M530b (Hydroxylation) / UV % at 280-290 nm or observed (+ or --), metabolite M530e (Hydroxylation): +: only detected by MS; --: not detected or trace; conditions: 10 μM; for UV % at 280-290 nm, Parent-T0 min: T0 min (normalized as 100%)
Description: as §1

[1] = PO pharmacokinetics in male SD rats; type: in vivo, rat; conditions: PO 2 mpk
Description: Pharmacokinetic parameters of some examples were evaluated in male Sprague Dawley (SD) rats after intravenous (IV) and oral (PO) dosing. Male SD rats (5-6 weeks of age) were fasted for 12 hours before administration of the compound of interest. Animals were allowed access to food 2 h after dosing and water was given ad libitum. Except for the compound of Example 13, pharmacokinetic experiments comparing deuterium containing and non-deuterium containing compounds were performed at the same time using the same cohort of animals. The pharmacokinetic properties of the compound of Example 13 were evaluated separately and compared to previously generated data.
For oral (PO) dosing, a 0.2 mg/mL suspension of the test compound was prepared in a vehicle comprising 0.5% Tween-20 in 0.5% methyl cellulose in phosphate buffered saline (PBS). For a 2 mpk dose, 10 mL/kg of this dosing vehicle was administered by oral gavage. Blood samples from each animal was collected di-sodium EDTA coated containers at 0.25, 0.5, 1.0, 2.0, 4.0, 8.0 10.0 and 24.0 hours after dosing. Plasma was separated from the blood samples within 15 minutes following collection and stored at −20±5° C. before analysis.
A standard curve was generated from a stock solution of the test compound with known concentration in methanol. […]
Plasma samples collected from rats after dosing were allowed to reach room temperature. […] The supernatant (10 uL) was analyzed by LC-MS/MS (LC: Shimadzu SIL HTc, MS: MDS Sciex API-5500 & 4000 using 75%/25% acetonitrile/0.2% formic acid in Milli-Q water, flow rate: 1.0 mL/min, run time 3 minutes, Atlantis dC18(50×4.6 mm, 3 um; Waters®)) and the concentrations of the test compound in the plasma samples collected from rats at each time point were determined by comparison to the standard curve samples.
Pharmacokinetic parameters were calculated from the plasma concentrations at each time point using Phoenix WinNonlin (Version 7.0) by the non-compartmental analysis (NCA) method. […]

[2] = 120 min, relative to parent at T0

UV % at 280-290 nm or observed (+ or --), metabolite M387 (O-dealkylation) (minipig hepatocytes; [2]): 14.4%
UV % at 280-290 nm or observed (+ or --), metabolite M530b (Hydroxylation) (minipig hepatocytes; [2]): --
UV % at 280-290 nm or observed (+ or --), metabolite M530c (Hydroxylation) (minipig hepatocytes; [2]): +
UV % at 280-290 nm or observed (+ or --), metabolite M530e (Hydroxylation) (minipig hepatocytes; [2]): 2.4%
UV % at 280-290 nm or observed (+ or --), metabolite M563 (O-dealkylation + Glucuronidation) (minipig hepatocytes; [2]): +
UV % at 280-290 nm or observed (+ or --), metabolite M530d (Hydroxylation) (minipig hepatocytes; [2]): 1.6%
UV % at 280-290 nm, Parent-T120 min (minipig hepatocytes; [2]): 70.0%
UV % at 280-290 nm, Parent-T0 min (minipig hepatocytes): 100.0%
UV % at 280-290 nm or observed (+ or --), metabolite M387 (O-dealkylation) (human hepatocytes; [2]): 3.5%
UV % at 280-290 nm or observed (+ or --), metabolite M530b (Hydroxylation) (human hepatocytes; [2]): +
UV % at 280-290 nm or observed (+ or --), metabolite M530c (Hydroxylation) (human hepatocytes; [2]): 1.3%
UV % at 280-290 nm or observed (+ or --), metabolite M530e (Hydroxylation) (human hepatocytes; [2]): +
UV % at 280-290 nm or observed (+ or --), metabolite M563 (O-dealkylation + Glucuronidation) (human hepatocytes; [2]): --
UV % at 280-290 nm or observed (+ or --), metabolite M530d (Hydroxylation) (human hepatocytes; [2]): 1.5%
UV % at 280-290 nm, Parent-T120 min (human hepatocytes; [2]): 84.8%
UV % at 280-290 nm, Parent-T0 min (human hepatocytes): 100.0%
AUC0-10 hr ([1]; ± one standard deviation): 854 ± 228 ng·h/mL
Structure (SMILES): Cc1cnc(-c2ccnc(C(C)(C)O)n2)cc1-n1c(C)cc(OCc2ncc(F)cc2F)c(Cl)c1=O (atropisomer, axis not shown; (P)) [Example 1-H2, (P)-3-chloro-4-((3,5-difluoropyridin-2-yl)methoxy)-2′-(2-(2-hydroxypropan-2-yl)pyrimidin-4-yl)-5′,6-dimethyl-2H-[1,4′-bipyridin]-2-one]

UV % at 280-290 nm or observed (+ or --), metabolite M532b (Hydroxylation) (minipig hepatocytes; [2]): +
UV % at 280-290 nm or observed (+ or --), metabolite M532c (Hydroxylation) (minipig hepatocytes; [2]): +
UV % at 280-290 nm, Parent-T120 min (minipig hepatocytes; [2]): 81.1%
UV % at 280-290 nm, Parent-T0 min (minipig hepatocytes): 100.0%
UV % at 280-290 nm or observed (+ or --), metabolite M387 (O-dealkylation) (human hepatocytes; [2]): +
UV % at 280-290 nm or observed (+ or --), metabolite M532b (Hydroxylation) (human hepatocytes; [2]): +
UV % at 280-290 nm or observed (+ or --), metabolite M532e (Hydroxylation) (human hepatocytes; [2]): +
UV % at 280-290 nm, Parent-T120 min (human hepatocytes; [2]): 88.2%
UV % at 280-290 nm, Parent-T0 min (human hepatocytes): 100.0%
AUC(0-t) ([1]; Sprague-Dawley, rat, plasma, 2 mg/kg, ± one standard deviation, read-out: AUC0-10 hr): 2020 ± 120 ng·h/mL
Structure (SMILES): [2H]C([2H])(Oc1cc(C)n(-c2cc(-c3ccnc(C(C)(C)O)n3)ncc2C)c(=O)c1Cl)c1ncc(F)cc1F (single isomer, unassigned) [Example 1-D2, (P)-3-Chloro-4-((3,5-difluoropyridin-2-yl)methoxy-d2)-2′-(2-(2-hydroxypropan-2-yl)pyrimidin-4-yl)-5′,6-dimethyl-2H-[1,4′-bipyridin]-2-one]
effect of deuterium substitution on exposure after PO dosing (AUC) ([1]; versus non-deuterated comparator, listed as Example 1): significantly higher exposure; also recorded: increased exposure
